For two compounds, GI% and inhibition results are on record in publication PMC11844072, “Novel 5,6-dichlorobenzimidazole derivatives as dual BRAFWT and BRAFV600E inhibitors: design, synthesis, anti-cancer activity and molecular dynamics simulations” (BMC Chemistry, 2025).

Common to all, as to assay: NCI 60 single concentration growth inhibition
Holding throughout (assay type): cell-based, human

One assay concerns CCRF-CEM. As to conditions: Leukemia. The protocol:
(§1) The synthesized dichlorobenzimidazoles 10a–p were assayed for their influence on divers cancer cell lines according to the method presented in the Additional file A.
(§2) 5. Screening of cytotoxic activity against a panel of sixty human tumor cell lines
(§3) The selected compounds by NCI were evaluated for their anticancer activity in a two-stage process. First, these compounds were screened against the full NCI 60 cell lines panel at a single high dose of 10 µM. Then, the output from the single dose screen is reported as a mean graph. […]
(§4) at five different minimal concentrations.
(§5) Assay protocol. The human tumor cell lines of the cancer screening panel are grown in RPMI 1640 medium containing 5% fetal bovine serum and 2 mM L-glutamine. For a typical screening experiment, cells are inoculated into 96 well microtiter plates in 100 µL at plating densities ranging from 5000 to 40,000 cells/well depending on the doubling time of individual cell lines. After cell inoculation, the microtiter plates are incubated at 37 °C, 5% CO 2, 95% air and 100% relative humidity for 24 h prior to addition of the experimental drugs.
(§6) After 24 h, two plates of each cell line are fixed in situ with TCA, to represent a measurement of the cell population for each cell line at the time of drug addition (Tz). The experimental drugs are solubilized in dimethyl sulfoxide at 400-fold the desired final maximum test concentration and stored frozen prior to use. At the time of drug addition, an aliquot of frozen concentrate is thawed and diluted to twice the desired final maximum test concentration with complete medium containing 50 µg/mL gentamicin. Additional four, 10-fold or ½ log serial dilutions are made to provide a total of five drug concentrations plus control.
(§7) Aliquots of […] of these different drug dilutions are added to the appropriate microtiter wells already containing […] of medium, resulting in the required final drug concentrations.
(§8) Following drug addition, the plates are incubated for an additional 48 h at 37 °C, 5% CO 2, 95% air, and 100% relative humidity. For adherent cells, the assay is terminated by the addition of cold TCA.
(§9) Cells are fixed in situ by the gentle addition of 50 µL of cold 50% (w/v) TCA (final concentration, 10% TCA) and incubated for 60 min at 4 °C. The supernatant is discarded, and the plates are washed five times with tap water and air dried. Sulforhodamine B (SRB) solution ([…]) at 0.4% (w/v) in 1% acetic acid is added to each well, and plates are incubated for 10 min at room temperature. After staining, unbound dye is removed by washing five times with 1% acetic acid and the plates are air dried. Bound stain is subsequently solubilized with 10 mM trizma base, and the absorbance is read on an automated plate reader at a wavelength of 515 nm. For suspension cells, the methodology is […]
(§10) the same except that the assay is terminated by fixing settled cells at the bottom of the wells by gently adding 50 µl of 80% TCA (final concentration, 16% TCA). Using the seven absorbance measurements [time zero, (Tz), control growth, (C), and test growth in the presence of drug at the five concentration levels (Ti)], the percentage growth is calculated at each of the drug concentrations […]
(§11) Percentage growth inhibition is calculated as: [(Ti Tz)/(C–Tz)] x 100 for concentrations for which Ti>/=Tz and [(Ti-Tz)/Tz] x 100 for concentrations for which Ti < Tz.
(§12) Three dose response parameters are calculated for each experimental agent. Growth […]
(§13) concentration resulting in a 50% reduction in the net protein increase (as measured by SRB staining) in control cells during the drug incubation. The drug concentration resulting in total growth inhibition (TGI) is calculated from Ti = Tz. […]
(§14) reduction in the measured protein at the end of the drug treatment as compared to that at the beginning) indicating a net loss of cells following treatment is calculated from [(Ti–Tz)/Tz] x 100 =
(§15) _50. Values are calculated for each of these three parameters if the level of activity is reached; […]

For the next assay, the system named is HOP-62. As to conditions: HOP-62, Non-small cell lung cancer. The protocol: as §1, §2, §3, §4, §5, §6, §7, §8, §9, §10, §11, §12, §13, §14, §15
The test system of another assay is SK-MEL-5. The conditions noted are these: SK-MEL-5, Melanoma. The protocol: as §1, §2, §3, §4, §5, §6, §7, §8, §9, §10, §11, §12, §13, §14, §15
In a further assay the test system is SF-295. The conditions noted are these: SF-295, CNS cancer. The procedure: as §1, §2, §3, §4, §5, §6, §7, §8, §9, §10, §11, §12, §13, §14, §15
In another assay the test system is BT-549. The conditions noted are these: BT-549, Breast cancer. The procedure: as §1, §2, §3, §4, §5, §6, §7, §8, §9, §10, §11, §12, §13, §14, §15
A further assay deals with MOLT-4. The conditions noted are these: MOLT-4, Leukemia. The procedure:
as §1, §2, §3, §4, §5, §6, §7, §8, §9, §10, §11, §12, §13, §14, §15

The test system of the next assay is HS 578T. The conditions noted are these: Breast cancer. The protocol:
as §1, §2, §3, §4, §5, §6, §7, §8, §9, §10, §11, §12, §13, §14, §15

For the next assay, the system named is OVCAR-8. The conditions noted are these: OVCAR-8, Ovarian cancer. The protocol: as §1, §2, §3, §4, §5, §6, §7, §8, §9, §10, §11, §12, §13, §14, §15
The next assay has as its system SN12C. The conditions noted are these: Renal cancer. The protocol: as §1, §2, §3, §4, §5, §6, §7, §8, §9, §10, §11, §12, §13, §14, §15
The test system of the next assay is ACHN. As to conditions: Renal cancer. The procedure: as §1, §2, §3, §4, §5, §6, §7, §8, §9, §10, §11, §12, §13, §14, §15
A further assay has as its system 786-0. The conditions noted are these: 786-0, Renal cancer. The procedure: as §1, §2, §3, §4, §5, §6, §7, §8, §9, §10, §11, §12, §13, §14, §15
The subject of the next assay is HL-60(TB). As to conditions: Leukemia. The protocol: as §1, §2, §3, §4, §5, §6, §7, §8, §9, §10, §11, §12, §13, §14, §15
The subject of another assay is A498. As to conditions: A498, Renal cancer. The procedure:
as §1, §2, §3, §4, §5, §6, §7, §8, §9, §10, §11, §12, §13, §14, §15

A further assay relates to SF-268. As to conditions: SF-268, CNS cancer. The protocol:
as §1, §2, §3, §4, §5, §6, §7, §8, §9, §10, §11, §12, §13, §14, §15

In the next assay the test system is M14. As to conditions: M14, Melanoma. The protocol: as §1, §2, §3, §4, §5, §6, §7, §8, §9, §10, §11, §12, §13, §14, §15
Another assay concerns SK-OV-3. The conditions noted are these: SK-OV-3, Ovarian cancer. The protocol: as §1, §2, §3, §4, §5, §6, §7, §8, §9, §10, §11, §12, §13, §14, §15
The next assay deals with MDA-MB-468. The conditions noted are these: MDA-MB-468, Breast cancer. The procedure: as §1, §2, §3, §4, §5, §6, §7, §8, §9, §10, §11, §12, §13, §14, §15
The test system of a further assay is SK-MEL-2. As to conditions: SK-MEL-2, Melanoma. The procedure:
as §1, §2, §3, §4, §5, §6, §7, §8, §9, §10, §11, §12, §13, §14, §15

A further assay has as its system KM12. As to conditions: KM12, Colon cancer. The procedure:
as §1, §2, §3, §4, §5, §6, §7, §8, §9, §10, §11, §12, §13, §14, §15

In another assay the test system is RPMI-8226. As to conditions: RPMI-8226, Leukemia. The protocol:
as §1, §2, §3, §4, §5, §6, §7, §8, §9, §10, §11, §12, §13, §14, §15

For the next assay, the system named is UACC-257. As to conditions: UACC-257, Melanoma. The protocol: as §1, §2, §3, §4, §5, §6, §7, §8, §9, §10, §11, §12, §13, §14, §15

In the case of “3-(4-((2-(2-(5,6-Dichloro-2-(4-methoxyphenyl)-1H-benzo[d]imidazol-1-yl)acetyl)hydrazono)methyl)phenoxy)propanoic acid [Compound 10i]”, the GI% in the assay with CCRF-CEM (10 μM) is 10.70%; with HOP-62 (10 μM), “– (GI% < 5%)”; in the assay with SK-MEL-5 (10 μM) it was 14.39%; in the assay with SF-295 (10 μM) it was 15.06%; with BT-549 (10 μM), 11.38%; with MOLT-4 (10 μM) it was “– (GI% < 5%)”. For the same compound, the GI% result is given as “– (GI% < 5%)” with HS 578T (10 μM); “– (GI% < 5%)” in the assay on OVCAR-8 (10 μM); “– (GI% < 5%)” with SN12C (10 μM); 5.11% in the assay on ACHN (10 μM); 5.33% in the assay on 786-0 (10 μM); “– (GI% < 5%)” in the assay on HL-60(TB) (10 μM). For the same compound, the GI% result in the assay on A498 (10 μM) is listed as “– (GI% < 5%)”; in the assay on SF-268 (10 μM), “– (GI% < 5%)”; in the assay on M14 (10 μM), “– (GI% < 5%)”; in the assay on SK-OV-3 (10 μM) it was 6.27%; in the assay with MDA-MB-468 (10 μM), 10.83%; with SK-MEL-2 (10 μM), “– (GI% < 5%)”. In addition, the GI% entry in the assay with KM12 (10 μM), in the assay on RPMI-8226 (10 μM) and with UACC-257 (10 μM) was “– (GI% < 5%)” each time.

Consider `CCOC(=O)C(C)Oc1ccc(C=NNC(=O)Cn2c(-c3ccc(OC)cc3)nc3cc(Cl)c(Cl)cc32)cc1` (stereo not drawn) [Compound 10j, Ethyl-2-(4-((2-(2-(5,6-dichloro-2-(4-methoxyphenyl)-1H-benzo[d]imidazol-1-yl)acetyl) hydrazono)methyl)phenoxy)propanoate], for which the inhibition at 10 µM was 25.8% in the assay with CCRF-CEM (Homo sapiens, read-out: GI%); < 5% in the assay on HOP-62 (Homo sapiens, read-out: GI%); 25.2% in the assay on SK-MEL-5 (Homo sapiens, read-out: GI%); 21% in the assay on SF-295 (Homo sapiens, read-out: GI%); 11.8% in the assay with BT-549 (Homo sapiens, read-out: GI%); 53.2% in the assay on MOLT-4 (Homo sapiens, read-out: GI%). Further, the inhibition at 10 µM in the assay on HS 578T (Homo sapiens, read-out: GI%) was < 5%; with OVCAR-8 (Homo sapiens, read-out: GI%) it was 20.7%; in the assay with SN12C (Homo sapiens, read-out: GI%) it was 51.9%; in the assay with ACHN (Homo sapiens, read-out: GI%) it was 18%; in the assay on 786-0 (Homo sapiens, read-out: GI%), 11.3%; with HL-60(TB) (Homo sapiens, read-out: GI%), 6.19%. The inhibition at 10 µM is < 5% with A498 (Homo sapiens, read-out: GI%); 14.3% in the assay with SF-268 (Homo sapiens, read-out: GI%); 9.09% in the assay on M14 (Homo sapiens, read-out: GI%); 5.5% with SK-OV-3 (Homo sapiens, read-out: GI%); 43.9% in the assay on MDA-MB-468 (Homo sapiens, read-out: GI%); 8.36% with SK-MEL-2 (Homo sapiens, read-out: GI%). Besides, the inhibition at 10 µM in the assay on KM12 (Homo sapiens, read-out: GI%) is < 5%; in the assay on RPMI-8226 (Homo sapiens, read-out: GI%), 40.2%; in the assay on UACC-257 (Homo sapiens, read-out: GI%), < 5%.
